According to patent publication US6448256B1, “Antibiotic prodrugs” (University of Massachusetts, priority 1999, dated 2002):
In brackets after ≈: the same amount, converted by molar mass. Where two headings read alike, the source gives them in different places.

Tests used:
S. aureus [1] = assay: Bactericidal activity (killing) against S. aureus; assay type: cell-based; settings: 2, 4, and 8× MIC, killing continued for 24 hours
E. fecalis = assay: MIC against E. fecalis; assay type: cell-based
Experimental: (§1) To further investigate the antibacterial and/or DNA pol III inhibitory activity of various drug compounds, various ester-containing moieties N-linked to the EMAU core were produced as described in Example 1. These prodrugs were assayed for inhibition of B. subtilis DNA pol III and antibiotic activity against a number of bacteria.
(§2) The minimal inhibitory concentrations (MICs) of the four N3-substituted agents and EMAU were determined for B. subtilis (BS), methicillin-sensitive and resistant S. aureus (SA & MRSA), vancomycin-sensitive and resistant E. fecalis (EF& VREF), vancomycin-resistant E. fecium (VREF*), and E. coli (EC) as a Gram-negative control.

S. aureus [2] = assay: MIC against S. aureus (methicillin-sensitive); assay type: cell-based; settings: for MIC: Staphylococcus aureus
Experimental: as §1, §2

B. subtilis [3] = assay: MIC against B. subtilis; assay type: cell-based; settings: for MIC: Bacillus subtilis
Experimental: as §1, §2

[4] = tested on: S. aureus (methicillin-sensitive Smith strain); assay: ip/ip mouse protection against lethal S. aureus infection; assay type: in vivo, mice
Experimental: Step 1: Screening—Each candidate prodrug is screened for activity in an ip/ip S. aureus protection model. Candidates that display efficacy equivalent to that of HB-EMAU and HB-IMAU are selected for advanced pharmacokinetic analysis and application in the more relevant mouse thigh model of infection.
The efficacy of the propyl derivatives was tested against murine staphylococcal infection in vivo. A simple “ip/ip” system was used, in which 20 gram mice (10 each) were injected ip (intraperitoneally) with a lethal dose (2.3×10^7 CFU) of the methicillin-sensitive Smith strain of S. aureus. The mice were then immediately injected ip with the antibiotic agent as a 1:9 mixture of DMSO:peanut oil. Vancomycin was used as the positive control drug.
Both hydroxybutyl compounds were tested at 10 mg/kg in the mouse protection experiment against lethal S. aureus infection described in Example 4 above.

B. subtilis DNA pol III = B. subtilis DNA pol III (Bacillus subtilis, UniProt P13267); assay: Inhibition of B. subtilis DNA pol III (Ki); assay type: biochemical
Experimental: as §1
(§3) The competitive inhibitor constants (Ki) of selected EMAU compounds were determined with three different pol Ills: the pol III enzyme from Bacillus subtilis (BS pol III), and the pol III enzymes of the clinically relevant pathogens, Enterococcus fecalis (EF pol III) and Staphylococcus aureus (SA pol 111).

B. subtilis [5] = assay: Antibacterial activity of crude compounds made by small scale synthesis; assay type: cell-based; settings: Bacillus subtilis; crude reaction mixtures dissolved in DMSO, assayed directly
Experimental: 6-Anilinouracils were synthesized using small scale synthetic methods. One milligram quantities of 3-(3-methoxypropyl)-6-chlorouracil were heated with 42 substituted anilines in micro-test tubes at 130° C. for 20 minutes. The reaction mixtures were dissolved in DMSO and assayed directly for antibacterial activity.

MRSA = assay: MIC against methicillin-resistant S. aureus strain MRSA / MRSA1; assay type: cell-based; settings: for MIC: Staphylococcus aureus, MRSA, Table 5
Experimental: as §1, §2

[6] = tested on: vancomycin-resistant E. fecium; assay: MIC against vancomycin-resistant E. fecium (VRE, VREF*); assay type: cell-based; settings: for MIC: Enterococcus, Table 5, vancomycin-resistant E. fecium
Experimental: as §1, §2

SA pol III = target: T1, SA pol III (Staphylococcus aureus, UniProt P0C1P9); assay: Inhibition of S. aureus pol III (Ki); assay type: biochemical; settings: Table 4, average of 3 determinations, standard deviation 13.4%
T1 sequence (P0C1P9 1-1435): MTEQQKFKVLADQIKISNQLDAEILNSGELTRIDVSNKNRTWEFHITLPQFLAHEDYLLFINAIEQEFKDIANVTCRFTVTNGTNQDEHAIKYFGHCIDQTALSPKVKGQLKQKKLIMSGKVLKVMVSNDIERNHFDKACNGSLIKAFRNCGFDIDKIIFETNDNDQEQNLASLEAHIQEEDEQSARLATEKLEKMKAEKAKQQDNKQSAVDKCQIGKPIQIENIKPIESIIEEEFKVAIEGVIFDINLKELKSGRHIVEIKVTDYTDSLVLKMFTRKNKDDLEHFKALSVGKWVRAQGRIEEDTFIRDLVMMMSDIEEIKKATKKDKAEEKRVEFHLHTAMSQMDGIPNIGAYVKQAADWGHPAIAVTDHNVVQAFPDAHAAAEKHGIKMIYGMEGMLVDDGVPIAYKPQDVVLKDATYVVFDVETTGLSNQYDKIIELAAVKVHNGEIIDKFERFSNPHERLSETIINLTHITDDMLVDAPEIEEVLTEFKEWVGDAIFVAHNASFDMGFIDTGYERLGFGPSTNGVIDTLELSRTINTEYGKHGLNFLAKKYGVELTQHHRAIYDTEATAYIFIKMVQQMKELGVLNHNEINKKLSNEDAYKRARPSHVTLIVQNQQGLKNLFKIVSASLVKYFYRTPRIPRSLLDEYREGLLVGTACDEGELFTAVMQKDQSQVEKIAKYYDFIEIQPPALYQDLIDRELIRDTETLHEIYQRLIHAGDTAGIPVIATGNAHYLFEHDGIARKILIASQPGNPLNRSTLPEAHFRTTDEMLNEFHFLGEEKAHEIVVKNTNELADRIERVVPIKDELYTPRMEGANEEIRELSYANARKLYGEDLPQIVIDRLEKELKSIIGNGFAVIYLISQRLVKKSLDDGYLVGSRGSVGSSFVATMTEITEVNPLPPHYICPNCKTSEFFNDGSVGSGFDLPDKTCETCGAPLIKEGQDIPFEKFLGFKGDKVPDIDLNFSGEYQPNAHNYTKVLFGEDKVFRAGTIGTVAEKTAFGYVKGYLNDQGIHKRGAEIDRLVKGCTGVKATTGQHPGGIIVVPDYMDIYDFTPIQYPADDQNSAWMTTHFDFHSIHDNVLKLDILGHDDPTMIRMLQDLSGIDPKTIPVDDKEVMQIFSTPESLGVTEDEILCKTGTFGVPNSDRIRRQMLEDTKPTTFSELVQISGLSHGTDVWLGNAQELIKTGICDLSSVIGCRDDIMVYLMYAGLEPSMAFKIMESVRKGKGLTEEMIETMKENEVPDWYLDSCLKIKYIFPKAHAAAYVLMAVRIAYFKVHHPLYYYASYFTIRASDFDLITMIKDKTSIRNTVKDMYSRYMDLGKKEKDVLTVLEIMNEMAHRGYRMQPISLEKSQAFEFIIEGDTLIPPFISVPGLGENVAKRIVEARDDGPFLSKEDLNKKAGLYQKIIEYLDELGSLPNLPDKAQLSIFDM
Experimental: as §3

E. coli = assay: MIC against E. coli (Gram-negative control); assay type: cell-based; settings: for MIC: Escherichia coli, Table 5, Gram-negative control
Experimental: as §1, §2

MRSA2 = assay: MIC against methicillin-resistant S. aureus strain MRSA2; assay type: cell-based; settings: for MIC: Staphylococcus aureus, Table 5
Experimental: as §1, §2

EF pol III = EF pol III (Enterococcus faecalis, UniProt Q831W8); assay: Inhibition of E. fecalis pol III (Ki); assay type: biochemical; settings: Table 4, average of 3 determinations, standard deviation 13.4%; read-out: KI EF pol III
Experimental: as §3

[7] = tested on: vancomycin-resistant E. fecalis; assay: MIC against vancomycin-resistant E. fecalis (VREF); assay type: cell-based; settings: Table 5, vancomycin-resistant E. fecalis
Experimental: as §2

E. fecium = assay: MIC against E. fecium; assay type: cell-based; settings: Table 2
Experimental: as §1

[8] = Prodrug stability in physiological saline; assay type: physicochemical
Experimental: (§4) The conversion rate of prodrugs can be measured by first establishing a reverse phase HPLC method for the detection of both prodrug and drug in a biological sample such as plasma or serum. A stock solution of prodrug, usually in saline, is diluted 1:5 in animal plasma or saline. […] If necessary, the sample can be thawed in a 37° C. water bath. Aliquots of the diluted sample are taken at 15, 30, 45, 60, 90, 120, and 180 minutes. Longer time points are usually needed for saline solutions because the rates of spontaneous hydrolysis are much longer than for enzyme-catalyzed hydrolysis. The aliquots are analyzed at a 1:10 dilution using HPLC, and the fraction of prodrug which has been converted at each time point calculated.
(§5) The rate of formation of the drug and the rate of decay of the prodrug had doubling and half-life times, respectively, of about 30 minutes. In contrast, the estimated half-life of Val-B-EMAU in physiological saline at 37° C. was greater then 5000 hours. The mechanism for the decomposition of Val-B-EMAU by plasma is presumed to involve esterases in the circulation.
(§6) To further define the conversion rate of Val-B-EMAU (4a), the prodrug was incubated in 80% mouse plasma.

[9] = Prodrug conversion in mouse plasma in vitro (HPLC); assay type: in vitro ADME
Experimental: as §4, §5, §6

[10] = Plasma pharmacokinetics after intravenous administration to mice; assay type: in vivo; settings: mouse, plasma, intravenous, 25 mg/kg, tail vein, 25 mg/kg in saline (FIG. 1), read-out: half life of Val-B-EMAU in plasma
Experimental: (d) Elimination halfife and apparent volume of distribution. An appropriate dose of each agent (the maximum permitted by the results of the above dose/toxicity studies) is injected via the tail vein to a series of mice (e.g., 12). At specific times following injection (e.g., 10, 20, 30, 45, 90, and 150 minutes), mice (e.g., a pair) are restrained in DecapiCones and decapitated, and their blood collected individually by exsanguination into a sterile test tube.
The blood samples are centrifuged to yield clear plasma (yield: 0.4-0.6 ml per mouse). Approximately 0.2 ml of the plasma sample are used for HPLC analysis, using conditions established herein for quantitation of the compound. The individual plasma levels for each time point are averaged, and the data are analyzed to estimate Vd and half-life by established methods (Gibaldi, M. and D. Perrier. Pharmacokinetics. Marcel Dekker, Inc., New York, 1975).
Solutions of Val-B-EMAU in saline were next injected into the tail veins of mice at a dose of 25 mg/kg body weight. Animals were sacrificed at various times after dosing, and plasma was isolated and subjected to HPLC analysis.
Each value plotted in FIG. 3 represents the average of four measurements, each in a different animal.

Solubility in water = assay type: physicochemical; settings: 25° C.
Text: The prodrug 3-(L-valylbutyl)-EMAU (Val-B-EMAU, 4a) was synthesized as a hydrochloride. The structure was confirmed by NMR. The compound had high solubility in water. […] Two different synthesis methods were used.

[11] = Table 5, vancomycin-sensitive, read-out: MIC EF
[12] = Table 5, methicillin-sensitive, read-out: MIC SA
[13] = Table 4, average of 3 determinations, standard deviation 13.4%, read-out: KI Bs pol III

B. subtilis DNA pol III, sequence (P13267 whole entry): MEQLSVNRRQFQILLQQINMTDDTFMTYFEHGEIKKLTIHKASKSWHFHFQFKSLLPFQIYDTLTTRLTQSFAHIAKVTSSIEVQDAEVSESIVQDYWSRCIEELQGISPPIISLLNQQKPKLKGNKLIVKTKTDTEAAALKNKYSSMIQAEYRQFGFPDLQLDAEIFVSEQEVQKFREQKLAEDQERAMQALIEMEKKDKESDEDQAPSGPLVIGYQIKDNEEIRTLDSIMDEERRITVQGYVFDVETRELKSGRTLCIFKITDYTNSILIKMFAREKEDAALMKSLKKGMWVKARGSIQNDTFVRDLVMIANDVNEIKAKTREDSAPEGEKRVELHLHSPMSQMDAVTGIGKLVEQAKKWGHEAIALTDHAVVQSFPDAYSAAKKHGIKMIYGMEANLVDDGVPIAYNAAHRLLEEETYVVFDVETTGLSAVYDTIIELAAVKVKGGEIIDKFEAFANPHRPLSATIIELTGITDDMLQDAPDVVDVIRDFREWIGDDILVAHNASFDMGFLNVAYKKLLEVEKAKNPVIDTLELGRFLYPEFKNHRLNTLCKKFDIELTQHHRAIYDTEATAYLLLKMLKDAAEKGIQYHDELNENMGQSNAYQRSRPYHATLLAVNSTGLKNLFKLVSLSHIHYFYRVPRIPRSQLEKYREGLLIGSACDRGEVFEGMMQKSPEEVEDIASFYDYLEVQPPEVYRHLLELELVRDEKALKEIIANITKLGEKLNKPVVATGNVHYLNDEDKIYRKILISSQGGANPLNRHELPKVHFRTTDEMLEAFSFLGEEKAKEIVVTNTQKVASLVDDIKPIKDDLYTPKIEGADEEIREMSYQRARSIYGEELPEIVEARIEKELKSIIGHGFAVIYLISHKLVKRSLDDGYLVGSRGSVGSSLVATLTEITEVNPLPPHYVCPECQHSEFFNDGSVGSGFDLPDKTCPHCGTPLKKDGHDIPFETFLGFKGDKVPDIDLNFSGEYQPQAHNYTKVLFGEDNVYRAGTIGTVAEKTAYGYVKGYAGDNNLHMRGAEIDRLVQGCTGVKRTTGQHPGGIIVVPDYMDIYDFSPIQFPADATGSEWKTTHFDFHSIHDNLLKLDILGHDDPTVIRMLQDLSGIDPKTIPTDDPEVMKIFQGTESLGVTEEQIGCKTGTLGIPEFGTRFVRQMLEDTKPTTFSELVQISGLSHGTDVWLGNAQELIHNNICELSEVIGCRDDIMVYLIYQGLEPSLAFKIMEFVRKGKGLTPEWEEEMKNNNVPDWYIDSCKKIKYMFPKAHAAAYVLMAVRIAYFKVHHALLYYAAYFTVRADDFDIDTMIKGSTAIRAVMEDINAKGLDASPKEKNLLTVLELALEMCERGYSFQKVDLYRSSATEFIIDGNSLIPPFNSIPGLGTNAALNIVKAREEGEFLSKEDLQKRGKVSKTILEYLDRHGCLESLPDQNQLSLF

Cc1ccc(Nc2cc(=O)n(CCCCO)c(=O)[nH]2)cc1I [HB-IMAU]
bactericidal for S. aureus (S. aureus [1]): bactericidal | MIC (E. fecalis; Table 6, read-out: MIC E. fecalis): 6 µg/mL (≈ 14.4 µM) | MIC (S. aureus [2]; read-out: MIC S. aureas): 6 µg/mL (≈ 14.4 µM) | MIC (B. subtilis [3]; Table 6, read-out: MIC B. subtilis): < 3.1 µg/mL | animals protected from death ([4]; 10 mg/kg, four day experiment, ten animals): nine of ten animals | Ki (B. subtilis DNA pol III; Table 6, read-out: Ki, inhibition constant vs. B. subtilis DNA pol III): 220 nM

CCc1cc(Nc2cc(=O)n(CCCOC)c(=O)[nH]2)ccc1C [MP-EMAU]
MIC (E. fecalis; [11]): 1.9 µg/mL (≈ 5.99 µM) | MIC (B. subtilis [5]): 3.13 µg/mL (≈ 9.86 µM) | MIC (MRSA): 3.9 µg/mL (≈ 12.3 µM) | MIC [6]: 3.9 µg/mL (≈ 12.3 µM) | MIC (S. aureus [2]; [12]): 3.9 µg/mL (≈ 12.3 µM) | MIC (B. subtilis [3]; Table 5, read-out: MIC BS): 0.5 µg/mL (≈ 1.58 µM) | Ki (SA pol III): 820 nM | MIC (E. coli): > 35 µg/mL | MIC (MRSA2): 3.9 µg/mL (≈ 12.3 µM) | Ki (EF pol III): 190 nM | animals protected ([4]; 10 mg/kg ip): roughly 50% | animals protected ([4]; lower dose (5 mg/kg) ip): none | MIC [7]: 1.9 µg/mL (≈ 5.99 µM) | Ki (B. subtilis DNA pol III; [13]): 240 nM

CCc1cc(Nc2cc(=O)n(CCCCOC(=O)[C@@H](N)C(C)C)c(=O)[nH]2)ccc1C [Val-B-EMAU, 3-(L-valylbutyl)-EMAU]
MIC E. fecalis (E. fecalis; Table 2): 17 μ/ml | MIC E. fecium (E. fecium): 33 μ/ml | half-life ([8]; 37° C., read-out: estimated half-life in physiological saline): > 208 days | half-life ([8]; b125, read-out: half-life in physiological saline): 18.8 to 20.8 days | MIC MRSA (MRSA; Table 2): 33 μ/ml | half-life ([9]; 80% mouse plasma, 37° C. (FIG. 2), read-out: prodrug half-life): 37.8 min | half-life ([9]; mouse plasma, 37° C., HPLC, read-out: half-life of decay of the prodrug): ~30 min | MIC VRE ([6]; Table 2, vancomycin-resistant E. fecium): 8 μ/ml | MIC (S. aureus [2]; Table 1, read-out: MIC S. aureus): < 20 µg/mL | MIC S. aureus (S. aureus [2]; Table 2): 17 μ/ml | half-life [10]: 34 min | solubility (Solubility in water): > 10000 µg/mL | MIC B. subtilis (B. subtilis [3]; Table 2): 4 μ/ml | MIC E. coli (E. coli; Table 2): >33 μ/ml | MIC MRSA2 (MRSA2; Table 2): 33 μ/ml | Ki (B. subtilis DNA pol III; Table 1, read-out: Ki B. subtilis pol III): 530 nM | Ki (B. subtilis DNA pol III; Table 2, prodrugs having the EMAU core, read-out: Ki B. subtilis DNA Pol III): 530 nM

CCc1cc(Nc2cc(=O)n(CCCO)c(=O)[nH]2)ccc1C [HP-EMAU]
MIC (E. fecalis; [11]): 4.1 µg/mL (≈ 13.5 µM) | MIC (MRSA): 8.3 µg/mL (≈ 27.4 µM) | MIC [6]: 4.1 µg/mL (≈ 13.5 µM) | MIC (S. aureus [2]; [12]): 4.1 µg/mL (≈ 13.5 µM) | MIC (B. subtilis [3]; Table 5, read-out: MIC BS): 1 µg/mL (≈ 3.3 µM) | Ki (SA pol III): 420 nM | MIC (E. coli): > 35 µg/mL | MIC (MRSA2): 8.3 µg/mL (≈ 27.4 µM) | Ki (EF pol III): 140 nM | animals protected ([4]; 5 mg/kg ip): 70% | protection of mice ([4]; 10 mg/kg ip, 10 mice, 2.3×10^7 CFU S. aureus Smith ip, DMSO:peanut oil 1:9): protected all mice | MIC [7]: 4.1 µg/mL (≈ 13.5 µM) | Ki (B. subtilis DNA pol III; [13]): 330 nM
